Assay results: PubChem BioAssay (NCI)
Values joined by “and” are separate entries in the source; they are usually repeats but may differ in a detail not shown here. Identical values can stand only once.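 Tested at 5 concentrations; 48 h exposure; 96-well plates; endpoints linearly interpolated, else capped at highest concentration. Here, GI50 denotes the concentration required for 50% inhibition of growth. TGI: total growth inhibition.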

Columns and labels:
Assay in all cases: NCI anticancer screen, dose series, 48 h
HCC-2998 colon = system: HCC-2998 colon
SK-MEL-28 melanoma = system: SK-MEL-28 melanoma
SK-MEL-5 melanoma = system: SK-MEL-5 melanoma
U251 CNS = system: U251 CNS
KM12 colon = system: KM12 colon
LOX IMVI melanoma = system: LOX IMVI melanoma
MCF7 breast = system: MCF7 breast
A498 renal = system: A498 renal
NCI/ADR-RES ovarian = system: NCI/ADR-RES ovarian
COLO 205 colon = system: COLO 205 colon

| SMILES | GI50 (HCC-2998 colon) [µM] | TGI (HCC-2998 colon) | GI50 (SK-MEL-28 melanoma) | TGI (SK-MEL-28 melanoma) | GI50 (SK-MEL-5 melanoma) | TGI (SK-MEL-5 melanoma) | GI50 (U251 CNS) | TGI (U251 CNS) | GI50 (KM12 colon) | TGI (KM12 colon) | GI50 (LOX IMVI melanoma) | TGI (LOX IMVI melanoma) | GI50 (MCF7 breast) | TGI (MCF7 breast) | GI50 (A498 renal) | TGI (A498 renal) | GI50 (NCI/ADR-RES ovarian) | TGI (NCI/ADR-RES ovarian) | GI50 (COLO 205 colon) | TGI (COLO 205 colon) |
| --- | --- | --- | --- | --- | --- | --- | --- | --- | --- | --- | --- | --- | --- | --- | --- | --- | --- | --- | --- | --- |
| COc1ccc(/C(C#N)=C2C=C/C(=N/O)c3ccccc3\2)cc1 | 0.346 | 1.44 µM | 1.22 µM | 20 µM | 0.323 µM | 1.26 µM | 0.446 µM | 15.1 µM | 0.175 µM | 4.82 µM | 0.382 µM | 14.7 µM | 0.181 µM | 14.1 µM | 2.21 µM | 6.75 µM | 0.125 µM | 2.94 µM | 1.34 µM | 3.52 µM |
| CN1CSC(=S)N(Cc2ccccc2)C1 | 71 | > 100 µM | 18.4 µM | 41 µM | 13.1 µM | 26.1 µM | 13.5 µM | 30.2 µM | 1.87 µM | 4.19 µM | 2.75 µM | 11.6 µM | 3.18 µM | 17.6 µM | 0.017 µM | 31.2 µM | 28.2 µM | > 100 µM | 15 µM | 32.3 µM |
| CCn1c(-c2nonc2N)nc2cncc(C(=O)N3CC[C@H](N)C3)c21 | > 25 | > 25 µM | > 25 µM | > 25 µM | > 25 µM | > 25 µM | > 25 µM | > 25 µM | > 25 µM | > 25 µM | > 25 µM | > 25 µM | 14.1 µM | > 25 µM | 1.2 µM | > 25 µM | > 25 µM | > 25 µM | 5.87 µM | 24.7 µM |
| O=C(Nc1nc2ccccc2s1)Nc1ccc([N+](=O)[O-])cc1Cl | 5.65 | 25 µM | 6.25 µM | 20.1 µM | 7.3 µM | 22.1 µM | 2.13 µM | 4.75 µM | 2.82 µM | 8.48 µM | 2.66 µM | 6.7 µM | 2.55 µM | 9.72 µM | 5.15 µM | 12.5 µM | 2.99 µM | 9.93 µM | 10.3 µM | 32.9 µM |
| CCc1nc(N)nc(N)c1-c1ccc(N2CCNCC2)cc1 |  | > 100 µM |  | > 100 µM |  | 40.9 µM |  | > 100 µM |  | > 100 µM |  | > 100 µM |  | > 94.3 µM |  | > 100 µM |  | > 100 µM |  | 41.1 µM |
| CSc1ccc2c(c1)C(N1CCN(C)CC1)Cc1ccccc1S2 (centres undefined) | 1.65 | 25.9 µM and 3.08 µM | 1.64 µM | 3.06 µM | 1.56 µM | 3.53 µM and 2.9 µM | 1.53 µM | 18.6 µM and 2.95 µM | 1.83 µM | 7.49 µM and 3.55 µM | 1.63 µM | 4.05 µM and 3.05 µM | 1.79 µM | 7.22 µM and 3.58 µM | 1.37 µM | 25.8 µM and 2.8 µM | 1.96 µM | 19 µM and 4.58 µM | 1.76 µM | 3.74 µM and 3.29 µM |
| Cn1ncc(Cl)c1-c1cc(C(=O)N[C@H](CN)Cc2ccc(F)c(F)c2)oc1Cl |  | 6.23 µM and 2.08 µM | 1.02 µM and 0.935 µM | 4.78 µM and 3.2 µM | 2.15 µM and 1.48 µM | 5.8 µM and 2.87 µM | 0.289 µM and 0.171 µM | 13.5 µM and > 9.51 µM | 0.59 µM and 0.255 µM | 6.73 µM and 4.43 µM | 2.65 µM and 1.44 µM | 19.9 µM and 4.19 µM | 0.257 µM and 0.139 µM | 9.66 µM and 2.89 µM | 0.0303 µM and 0.0404 µM | 0.3 µM and 0.472 µM | 10.2 µM and 2.94 µM | 24.5 µM and > 10 µM | 0.593 µM and 0.575 µM | 5.84 µM and 3.22 µM |
| c1ccc2c3c([nH]c2c1)C(c1ccc(C2NCCc4c2[nH]c2ccccc42)cc1)NCC3 (centres undefined) | 0.274 | 1.28 µM | 1.68 µM | 3.18 µM | 1.7 µM | 3.13 µM | 0.321 µM | 1.1 µM | 1.07 µM | 2.36 µM | 0.196 µM | 0.45 µM | 0.393 µM | 1.75 µM | 1.64 µM | 8.87 µM | 2.1 µM | 7.81 µM | 0.204 µM | 0.459 µM |
